From patent US20070098735A1, “Methods for the Elimination of Pathogens and Other Particulate Agents” (priority 2005, published 2007)

Tests used:
[1] = tested on: Murine macrophage lines (RAW264.7, J774.A1 or RAW264NO-); test: Phagocytosis assay in vitro (uptake of Alexa Fluor 488-labeled particles); type: cell-based; parameters: effect of LR-disrupting drugs on HSP70-mediated phagocytosis: dose or concentration left out as unconfirmed; details: for uptake of labeled S. cerevisiae as compared to treatment with HSP70 (specificity controls): equimolar to HSP70 100 μg/ml, BSA 100 μg/ml, concavalin A 6 μg/ml, adjuvants 10 μl/well, ADP, ATP 3 mM
Description: Phagocytosis Assay in vitro. RAW 264.7, RAW264.7 (NO-) and J774A.1 cells were cultured in DMEM or RPMI (RAW NO-) with 10% FCS, harvested, and washed. 3×10^5 cells/well were incubated in serum-free Earle's minimal essential medium (EMEM) in a 24-well plate for 1 hour at 37° C. Alexa Fluor® 488-labeled particles (inert polystyrene microspheres; or yeast, Saccharomyces cerevisiae or Gram-negative bacteria, Escherichia coli, 40 particles/macrophage) were added and co-incubated in a dark environment for 60 minutes in serum free EMEM with or without HSPs, LPS, or control proteins. At the end of 60 minutes incubation, the plate was covered in a dark container on ice. Specific measures were taken to exclude the fluorescence that resulted from particles that were outside of the cell or sticking to the surface of the cell. […] Specifically, trypan blue (0.8 mg/ml) was added for 60 seconds and plates were analyzed immediately using FluorImager SI (Molecular Dynamics/Amersham). Since the emission of Alexa Fluor® 488, about 519 nm at an excitation of about 490 nm, falls within the absorbance range of trypan blue (475-675 nm), the fluorescence of the sample only represents the intracellular fluorescence. External or surface-bound fluorescence is quenched. Using Student's t test, the results were analyzed and P-values were calculated.
HSP-mediated phagocytosis was quantified by measuring the internalized fluorescence measured by FluorImager SI and Relative Mean Fluorescence Intensity (RMFI) was compared between the treatment groups (as indicated). All the treatment groups were compared to medium alone using the Student's t test and significance denoted by P<0.01. The error bar represents one standard deviation. The results shown are a cumulative analysis of 3 experiments, 3 wells/group.

[2] = tested on: full thickness surgical wounds on the dorsum of BALB/cJ mice; test: Closure of full thickness surgical wounds, percent wound closure; type: in vivo; details: day 2 post surgery; for wound healing on day 2: 30 μg/dose
Description: Surgery and Treatment. Mice were anesthetized using Ketamine (2.0 mg/mouse) and Xylazine (0.1 mg/mouse) were administered intraperitoneally (IP) and the dorsal skin was shaved. After sterile prepping of the area, a full thickness circular wound, 8 mm diameter, was made on the dorsal skin using a disposable biopsy punch (Miltex Inc, York, Pa.) on the midline of the dorsum approximately at the iliac crest. The mice were then randomly assigned into the treatment groups. Initial wound measurements were performed while the mice were still anesthetized. Mice were then treated on days 0, 2, 4, and 6 unless otherwise specified. All agents used as treatment were diluted in 0.5 ml of PBS and injected using a 25-gauge needle in the subcutaneous space in the nape of the neck. The surgical procedures, post-operative monitoring, and safety concerns were approved by the Institutional Animal Care and Usage Committee.
Measurements and Analysis. Wound healing of open wounds is a complex process with many parameters to consider. […] The wound surface area was determined by measuring the craniocaudal and lateromedial distances using vernier calipers in perpendicular axis on days 0, 2, 4, 6, 9, and 11 postoperatively unless noted. Changes in wound area were expressed as percent wound closure. Wound closure data was plotted as average percent wound closure ±SEM unless otherwise noted. All calculations and data analysis were performed using Microsoft Excel and Sigma Plot. Sigma Plot was used to perform Student's t-tests for reported P values.
Full thickness surgical wounds were created on the dorsum of BALB/cJ mice as described in Methods. Wounds were made on day 0. Subsequently, the wounds were treated with exogenous injections of HSP70, HSP90, gp96 (30 μg/dose) or buffer administered subcutaneously (SC) on days 0, 2, 4 and 6 following surgery (FIG. 6A). The wounds were measured on days 0, 2, 4, 6, 9, 11 unless otherwise noted. Wounds were measured serially, percent wound closure was calculated and plotted against time in order to quantitate the rate of healing by secondary intention. […] Data is plotted as average percent wound closure ±SEM on days indicated. Two mice from each treatment group (PBS (n=12), HSP70 (n=11), HSP90 (n=12), and gp96 (n=11)) were sacrificed for histology on days 2, 4, and 6 post-surgery (data not shown). The P values obtain using the Student's t-test.
Results are of average percent wound closure ±SEM on day 2 post surgery. The *P values were obtained using the Student's t-test by comparing HSP treatment to all of the non-HSP control treatments. The least significant P value was reported. […] Doses higher than 50 μg/dose were not tested.

| Molecule | uptake of labeled S. cerevisiae as compared to treatment with HSP70 (specificity controls) [1] | also measured |
| --- | --- | --- |
| Nc1ncnc2c1ncn2[C@@H]1O[C@H](COP(=O)(O)OP(=O)(O)O)[C@@H](O)[C@H]1O [ADP, adenosine diphosphate] | ineffective |  |
| concavalin A | None of control proteins used enhanced uptake |  |
| Nc1ncnc2c1ncn2[C@@H]1O[C@H](COP(=O)(O)OP(=O)(O)OP(=O)(O)O)[C@@H](O)[C@H]1O [ATP, adenosine triphosphate] | ineffective |  |
| C=CCn1c(=O)n([C@@H]2O[C@H](CO)[C@@H](O)[C@H]2O)c2nc(N)[nH]c(=O)c21 [LRB, Loxoribine] |  | dose dependence of inhibitory effect on HSP70-mediated phagocytosis ([1]; LRB 0-330 μM, HSP70 100 μg/ml): titratable by dose |
| beta galactosidase | None of control proteins used enhanced uptake |  |
| C[C@@H]1[C@H](O)[C@@H](C)/C=C/C=C/CC/C=C/C=C/C=C/C=C/C(O[C@H]2O[C@H](C)[C@@H](O)[C@H](N)[C@@H]2O)CC2O[C@](O)(CC(O)C(O)CCC(O)CC(O)CC(O)CC(=O)O[C@H]1C)CC(O)C2C(=O)O (stereo partly drawn) [nystatin] |  | effect of LR-disrupting drugs on HSP70-mediated phagocytosis ([1]; nystatin or MCD, labeled yeast 40 particles/macrophage): HSP70-mediated phagocytosis was inhibited |
| O=c1[nH]c(=O)c2[nH]c(=O)[nH]c2[nH]1 [uric acid, reference compound] |  | wound healing on day 2 [2]: 13%; wound closure of non-HSP controls compared to PBS control [2]: not significantly different to the PBS control |
| bovine serum albumin [BSA] | None of control proteins used enhanced uptake |  |
| phosphorylase B (protein, UniProt P00489 2-843, looked up, control protein of molecular weight corresponding to the HSPs) Glycogen phosphorylase, …: SRPLSDQEKRKQISVRGLAGVENVTELKKNFNRHLHFTLVKDRNVATPRDYYFALAHTVRDHLVGRWIRTQQHYYEKDPKRIYYLSLEFYMGRTLQNTMVNLALENACDEATYQLGLDMEELEEIEEDAGLGNGGLGRLAACFLDSMATLGLAAYGYGIRYEFGIFNQKICGGWQMEEADDWLRYGNPWEKARPEFTLPVHFYGRVEHTSQGAKWVDTQVVLAMPYDTPVPGYRNNVVNTMRLWSAKAPNDFNLKDFNVGGYIQAVLDRNLAENISRVLYPNDNFFEGKELRLKQEYFVVAATLQDIIRRFKSSKFGCRDPVRTNFDAFPDKVAIQLNDTHPSLAIPELMRVLVDLERLDWDKAWEVTVKTCAYTNHTVLPEALERWPVHLLETLLPRHLQIIYEINQRFLNRVAAAFPGDVDRLRRMSLVEEGAVKRINMAHLCIAGSHAVNGVARIHSEILKKTIFKDFYELEPHKFQNKTNGITPRRWLVLCNPGLAEIIAERIGEEYISDLDQLRKLLSYVDDEAFIRDVAKVKQENKLKFAAYLEREYKVHINPNSLFDVQVKRIHEYKRQLLNCLHVITLYNRIKKEPNKFVVPRTVMIGGKAAPGYHMAKMIIKLITAIGDVVNHDPVVGDRLRVIFLENYRVSLAEKVIPAADLSEQISTAGTEASGTGNMKFMLNGALTIGTMDGANVEMAEEAGEENFFIFGMRVEDVDRLDQRGYNAQEYYDRIPELRQIIEQLSSGFFSPKQPDLFKDIVNMLMHHDRFKVFADYEEYVKCQERVSALYKNPREWTRMVIRNIATSGKFSSDRTIAQYAREIWGVEPSRQRLPAPDEKIP | None of control proteins used enhanced uptake | wound healing on day 2 [2]: 19%; wound closure of non-HSP controls compared to PBS control [2]: not significantly different to the PBS control |
